Like-named read-outs stand apart in the source and are kept apart here.
Key:
P. falciparum Dd2^F145I [1] = test system: P. falciparum Dd2^F145I; design: key to Phenotype, Dd2^F145I: S: sensitive; R: resistant; details: cited from earlier work
P. falciparum FCB^KD1 [2] = test system: P. falciparum FCB^KD1; design: method as in ref 2 Sidhu et al. 2006; details: means ± SEM, N 4; ref 2 Sidhu et al. 2006; read-out: IC50 FCBKD1; cited from earlier work
P. falciparum Dd2^T93S [3] = test system: P. falciparum Dd2^T93S; design: key to Phenotype, Dd2^T93S: S: sensitive; R: resistant; details: cited from earlier work
P. falciparum Dd2^Dd2 [4] = test system: P. falciparum Dd2^Dd2; design: key to Phenotype, Dd2^Dd2: S: sensitive; R: resistant; details: cited from earlier work
P. falciparum Dd2^G353V = test system: P. falciparum Dd2^G353V; design: key to Phenotype, Dd2^G353V: S: sensitive; R: resistant; details: cited from earlier work
P. falciparum Dd2^H97Y = test system: P. falciparum Dd2^H97Y; design: key: S: sensitive; R: resistant; details: ref [19],[20],[51]; cited from earlier work
HepG2 cells = experiment: MTT cytotoxicity assay, 72 h; type: cell-based, Human
Description: (§1) Human hepatoma (HepG2) and fibroblast-like monkey kidney cells (COS-7) were cultured in Dulbecco’s Modified Eagle Medium supplemented with 10% heat-inactivated fetal bovine serum and gentamycin (40 mg/L) at 37°C in a 5% CO2 atmosphere. Cytotoxicity of test compounds was measured by metabolic reduction of mitochondrial enzymes using the MTT assay (3-[4,5-dimethyl-thiazol-2-yl]-2,5-diphenyltetrazolium chloride). Cells were seeded at 10^5 cells/well in 96-well plates and incubated for 72 hours in the presence of a 2-fold 12-point serial dilution of drugs along with drug-free controls. After adding 15 μL of MTT (5 mg/mL) to the wells, plates were centrifuged at 317g for 5 minutes and the pellet was resuspended in isopropanol. Absorbance was measured at 570 nm (CLARIOStar, Labtech BMG). Cell viability was determined by formazan production, and was expressed as a percentage of untreated control wells.

[5] = MTT cytotoxicity assay, 72 h; type: cell-based, Human; details: human, HepG2 cells; MTT, 72 h, N = 3
Description: as §1

[6] = test system: P. falciparum Dd2-Pol δ parasites; experiment: Single-step in vitro resistance selection; type: cell-based, Plasmodium falciparum
Description: Resistance to LDT-623 was assessed using single-step in vitro resistance selection protocols. […] Dd2-Pol δ is a hypermutable line with two point mutations in DNA polymerase δ that compromise its proofreading activity Cultures were monitored daily by thin blood smears until live parasites were no longer detectable. Drug-containing media was changed daily until parasites cleared, and every other day thereafter. Cultures were passaged once weekly by reducing the volume by 25% and replacing 1/3 of RBCs. Recrudescence monitoring was carried out twice a week by thin blood smears for 60 days. In the event of recrudescence, parasite susceptibility to LDT-623 was tested as described above.

P. falciparum NF10^YF = experiment: ABS susceptibility, pfmdr1-modified line; type: cell-based; details: Plasmodium falciparum
Description: (§2) P. falciparum ABS parasites were cultured at 3% hematocrit in human O^+ RBCs in RPMI-1640 media supplemented with 25 mM HEPES, 50 mg/L hypoxanthine, 2 mM L-glutamine, 0.21% sodium bicarbonate, 0.5% (w/v) AlbuMAXII (Invitrogen) and 10 μg/mL gentamycin. Culture flasks were kept in modular incubator chambers (Billups-Rothenberg) in a 5% O2, 5% CO2, and 90% N2 atmosphere at 37°C. Synchronized ring-stage parasites were obtained by two consecutive rounds of treatment with 5% D-sorbitol in 48-hour intervals. […] This was done by exposing cultures at 1% hematocrit and 0.3% parasitemia in 96-well plates in the presence of drugs in a two-fold 10 or 12-point serial dilution in duplicate along with drug-free controls. After a 72-hour incubation, parasite survival was assessed by flow cytometry on an iQue flow cytometer (Sartorius) using SYBR Green and MitoTracker Deep Red FM (Life Technologies) as nuclear stain and vital dye, respectively. Parasite survival was determined as a percentage relative to drug-free control. IC50 values were interpolated from log concentration versus response curves in Prism 9 (GraphPad Prism Software Inc.).

P. falciparum FCB^KD1 [7] = experiment: ABS susceptibility, pfmdr1-modified line; type: cell-based; details: Plasmodium falciparum
Description: as §2

P. falciparum NF10^NF = experiment: ABS susceptibility, pfmdr1-modified line; type: cell-based; details: Plasmodium falciparum
Description: as §2

P. falciparum FCB = experiment: ABS susceptibility, pfmdr1-modified line; type: cell-based; details: Plasmodium falciparum
Description: as §2

P. falciparum 7G8^C350R = experiment: ABS susceptibility, pfcrt-edited line; type: cell-based; details: Plasmodium falciparum
Description: as §2

P. falciparum Dd2^I218F = experiment: ABS susceptibility, pfcrt-edited line; type: cell-based; details: Plasmodium falciparum
Description: as §2

P. falciparum Dd2^3D7 = experiment: ABS susceptibility, pfcrt-edited line; type: cell-based; details: Plasmodium falciparum
Description: as §2

P. falciparum Dd2^Dd2 [8] = experiment: ABS susceptibility, pfcrt-edited line; type: cell-based; details: Plasmodium falciparum
Description: as §2

P. falciparum Dd2^M343L = experiment: ABS susceptibility, pfcrt-edited line; type: cell-based; details: Plasmodium falciparum
Description: as §2

P. falciparum Dd2^T93S [9] = experiment: ABS susceptibility, pfcrt-edited line; type: cell-based; details: Plasmodium falciparum
Description: as §2

P. falciparum Dd2^F145I [10] = experiment: ABS susceptibility, pfcrt-edited line; type: cell-based; details: Plasmodium falciparum
Description: as §2

[11] = Dd2T93S, mean ± SEM, ref 2 (Dhingra et al., 2019)

Question: With `CCN(CC)CCCC(C)Nc1ccnc2cc(Cl)ccc12` (stereo not shown) [CQ, chloroquine] as the compound, how does the IC50 (P. falciparum Dd2^F145I [1]; Dd2F145I, mean ± SEM, ref 1 (Ross et al., 2018)) read?
Answer: 19.3 ± 1.3 nM

Question: What about the “Phenotype, Dd2^F145I” value (P. falciparum Dd2^F145I [1]; a: sensitized to CQ compared to the parental line but not fully sensitive, ref [19],[20],[51]) of the same compound?
Answer: S ^a

Question: What about the IC50 (P. falciparum FCB^KD1 [2]) of the same compound?
Answer: 242 ± 43.9 nM

Question: What about the IC50 (P. falciparum Dd2^T93S [3]; [11]) of the same compound?
Answer: 61.9 ± 7.6 nM

Question: What about the IC90 (P. falciparum Dd2^T93S [3]; [11]) of the same compound?
Answer: 141 ± 6.3 nM

Question: And the “Phenotype, Dd2^T93S” value (P. falciparum Dd2^T93S [3]; ref [19],[20],[51])?
Answer: R

Question: And the IC50 (P. falciparum Dd2^Dd2 [4]; Dd2Dd2, mean ± SEM, ref 1 (Ross et al., 2018))?
Answer: 156 ± 9.3 nM

Question: And the IC90 (P. falciparum Dd2^Dd2 [4]; Dd2Dd2, mean ± SEM, ref 2 (Dhingra et al., 2019))?
Answer: 214 ± 7.4 nM

Question: And the “Phenotype, Dd2^Dd2” value (P. falciparum Dd2^Dd2 [4]; ref [19],[20],[51])?
Answer: R

Question: And the IC50 (P. falciparum Dd2^G353V; Dd2G353V, mean ± SEM, ref 1 (Ross et al., 2018))?
Answer: 54.6 ± 4.9 nM

Question: What about the “Phenotype, Dd2^G353V” value (P. falciparum Dd2^G353V; ref [19],[20],[51]) of the same compound?
Answer: S

Question: And the “Phenotype, Dd2^H97Y” value (P. falciparum Dd2^H97Y)?
Answer: R

Question: For `COc1cc2nccc(Nc3cccc(Oc4ccccc4)c3)c2cc1OC` [LDT-623], which “SI (CC50 HepG2 / IC50 3D7)” value (HepG2 cells) is on record?
Answer: 10

Question: And the CC50 at 72 h [5]?
Answer: 1300 ± 100 nM

Question: What about the “recrudescence under constant drug pressure” value ([6]; 3 × IC50 (1 μM), 1 × 10^9 parasites, 60 days) of the same compound?
Answer: No parasite recrudescence

Question: And the “log minimum inoculum of resistance (MIR)” value ([6]; constant drug pressure)?
Answer: higher than 9

Question: What about the day of recrudescence ([6]; drug pressure removed after day 7, both flasks) of the same compound?
Answer: 21 days

Question: And the “IC50 of recrudescent bulk parasites vs Dd2-Polδ parent” value ([6]; either flask)?
Answer: no difference in IC50

Question: And the IC50 (P. falciparum NF10^YF; read-out: IC50 NF10YF)?
Answer: 360.2 ± 1.9 nM

Question: What about the IC90 (P. falciparum NF10^YF; read-out: IC90 NF10YF) of the same compound?
Answer: 562.9 ± 2.8 nM

Question: And the IC50 (P. falciparum FCB^KD1 [7]; read-out: IC50 FCBKD1)?
Answer: 488 ± 12 nM

Question: And the IC90 (P. falciparum FCB^KD1 [7]; read-out: IC90 FCBKD1)?
Answer: 7.65 ± 1.12 µM

Question: What about the IC50 (P. falciparum NF10^NF; read-out: IC50 NF10NF) of the same compound?
Answer: 400 ± 28.2 nM

Question: And the IC90 (P. falciparum NF10^NF; read-out: IC90 NF10NF)?
Answer: 580 ± 13 nM

Question: What about the IC50 (P. falciparum FCB; read-out: IC50 FCB) of the same compound?
Answer: 414 ± 12.9 nM

Question: And the IC90 (P. falciparum FCB; read-out: IC90 FCB)?
Answer: 4.43 ± 0.164 µM

Question: What about the IC50 (P. falciparum 7G8^C350R) of the same compound?
Answer: 576 ± 49.4 nM

Question: And the IC90 (P. falciparum 7G8^C350R)?
Answer: 4.05 ± 3.08 µM

Question: What about the IC50 (P. falciparum Dd2^I218F) of the same compound?
Answer: 435 ± 20.1 nM

Question: And the IC90 (P. falciparum Dd2^I218F)?
Answer: 3.98 ± 1.68 µM

Question: And the IC50 (P. falciparum Dd2^3D7)?
Answer: 232 ± 10.5 nM

Question: What about the IC90 (P. falciparum Dd2^3D7) of the same compound?
Answer: 455 ± 51.1 nM

Question: And the IC50 (P. falciparum Dd2^Dd2 [8])?
Answer: 452 ± 31 nM

Question: What about the IC90 (P. falciparum Dd2^Dd2 [8]) of the same compound?
Answer: 6.33 ± 1.66 µM

Question: What about the IC50 (P. falciparum Dd2^M343L) of the same compound?
Answer: 416 ± 50 nM

Question: And the IC90 (P. falciparum Dd2^M343L)?
Answer: 6.86 ± 0.333 µM

Question: And the IC50 (P. falciparum Dd2^T93S [9])?
Answer: 227 ± 9 nM

Question: What about the IC90 (P. falciparum Dd2^T93S [9]) of the same compound?
Answer: 429 ± 41.7 nM

Question: And the IC50 (P. falciparum Dd2^F145I [10])?
Answer: 541 ± 83.7 nM

Question: What about the IC90 (P. falciparum Dd2^F145I [10]) of the same compound?
Answer: 3.79 ± 1.73 µM

Source: paper PMC11521309, “A novel 4-aminoquinoline chemotype with multistage antimalarial activity and lack of cross-resistance with PfCRT and PfMDR1 mutants” (PLOS Pathogens, 2024)
